Tests used:
Assay type in all cases: in vivo
Puccinia recondita = experiment: Brown Rust (PUCCRT), protectant spray test on wheat seedlings; settings: wheat (cultivar Monon), sprayed to run off at 100 ppm, inoculated after 24 hours
Phytophthora infestans = settings: tomatoes (cultivar Rutgers), sprayed to run off at 100 ppm, inoculated after 24 hours
Leptosphaeria nodorum = experiment: Glume Blotch of Wheat (LEPTNO), protectant spray test on wheat seedlings; settings: wheat (cultivar Monon), sprayed to run off at 100 ppm, inoculated after 24 hours
Erysiphe graminis = experiment: Powdery Mildew of Wheat (ERYSGT), protectant spray test on wheat seedlings; settings: wheat (cultivar Monon), sprayed to run off at 100 ppm, inoculated after 24 hours

Compound | PUCCRT control of plant disease (Puccinia recondita) | PHYTIN control of plant disease (Phytophthora infestans) | LEPTNO control of plant disease (Leptosphaeria nodorum) | ERYSGT control of plant disease (Erysiphe graminis)
CNC(=O)C(=NOC)c1ccccc1COc1ncc(C(OC(C)=O)c2ccc(OC)c(OC)c2)cc1Cl (centres unmarked) [Example 116] | ++ (++ = 75-100% control of plant disease) | + (+ = 25-74% control of plant disease) | ++ (++ = 75-100% control of plant disease) | ++ (++ = 75-100% control of plant disease)
CNC(=O)C(=NOC)c1ccccc1COc1ncc(C(O)c2ccc(C)cc2)cc1Cl (centres unmarked) [Example 70] | ++ (++ = 75-100% control of plant disease) | ++ (++ = 75-100% control of plant disease) | ++ (++ = 75-100% control of plant disease) | ++ (++ = 75-100% control of plant disease)
CNC(=O)C(=NOC)c1ccccc1COc1ncc(C2(c3ccccc3)COC(=S)O2)cc1Cl (centres unmarked) [Example 125] | ++ (++ = 75-100% control of plant disease) | ++ (++ = 75-100% control of plant disease) | ++ (++ = 75-100% control of plant disease) | ++ (++ = 75-100% control of plant disease)
CNC(=O)C(=NOC)c1ccccc1COc1ncc(C(OC)c2ccc(OC(F)(F)F)cc2)cc1Cl (centres unmarked) [Example 79] | ++ (++ = 75-100% control of plant disease) | − (− = 0-24% control of plant disease) | ++ (++ = 75-100% control of plant disease) | ++ (++ = 75-100% control of plant disease)
CC[Si](CC)(CC)OC(c1ccccc1)c1cnc(OCc2ccccc2C(=NOC)C(=O)NC)c(Cl)c1 (centres unmarked) [Example 67] | ++ (++ = 75-100% control of plant disease) | = = | ++ (++ = 75-100% control of plant disease) | ++ (++ = 75-100% control of plant disease)
CCCC(=O)OC(c1ccc(F)cc1)c1cnc(OCc2ccccc2C(=NOC)C(=O)NC)c(Cl)c1 (racemic) [Example 50] | ++ (++ = 75-100% control of plant disease) | ++ (++ = 75-100% control of plant disease) | ++ (++ = 75-100% control of plant disease) | ++ (++ = 75-100% control of plant disease)
CNC(=O)C(=NOC)c1ccccc1COc1ncc(C(O)c2ccc(OC)c(OC)c2)cc1Cl (centres unmarked) [Example 110] | ++ (++ = 75-100% control of plant disease) | ++ (++ = 75-100% control of plant disease) | ++ (++ = 75-100% control of plant disease) | ++ (++ = 75-100% control of plant disease)
CNC(=O)C(=NOC)c1ccccc1COc1ncc(C(O)c2ccccc2F)cc1Cl (racemic) [Example 65] | ++ (++ = 75-100% control of plant disease) | ++ (++ = 75-100% control of plant disease) | ++ (++ = 75-100% control of plant disease) | ++ (++ = 75-100% control of plant disease)
CNC(=O)C(=NOC)c1ccccc1COc1ncc(C(C)Oc2ccc(OC)cc2)cc1Cl (centres unmarked) [Example 89] | ++ (++ = 75-100% control of plant disease) | ++ (++ = 75-100% control of plant disease) | ++ (++ = 75-100% control of plant disease) | ++ (++ = 75-100% control of plant disease)
CCC(O)c1cnc(OCc2ccccc2C(=NOC)C(=O)NC)c(Cl)c1 (centres unmarked) [Example 90] | ++ (++ = 75-100% control of plant disease) | ++ (++ = 75-100% control of plant disease) | + (+ = 25-74% control of plant disease) | ++ (++ = 75-100% control of plant disease)
CNC(=O)C(=NOC)c1ccccc1COc1ncc(C(OC(C)C)c2ccccc2)cc1Cl (centres unmarked) [Example 117] | ++ (++ = 75-100% control of plant disease) | − (− = 0-24% control of plant disease) | ++ (++ = 75-100% control of plant disease) | ++ (++ = 75-100% control of plant disease)
CNC(=O)C(=NOC)c1ccccc1COc1ncc(C(OC(C)=O)c2ccccc2)cc1Cl (centres unmarked) [Example 76] | ++ (++ = 75-100% control of plant disease) | ++ (++ = 75-100% control of plant disease) | ++ (++ = 75-100% control of plant disease) | ++ (++ = 75-100% control of plant disease)
CNC(=O)C(=NOC)c1ccccc1COc1ncc(C(OC(C)=O)c2cccc(F)c2)cc1Cl (centres unmarked) [Example 96] | ++ (++ = 75-100% control of plant disease) | ++ (++ = 75-100% control of plant disease) | ++ (++ = 75-100% control of plant disease) | ++ (++ = 75-100% control of plant disease)
CNC(=O)C(=NOC)c1ccccc1COc1ncc(C(OC(C)(C)C)c2ccccc2)cc1Cl (centres unmarked) [Example 119] | ++ (++ = 75-100% control of plant disease) | ++ (++ = 75-100% control of plant disease) | ++ (++ = 75-100% control of plant disease) | ++ (++ = 75-100% control of plant disease)
CNC(=O)C(=NOC)c1ccccc1COc1ncc(C(O)c2ccccn2)cc1Cl (centres unmarked) [Example 105] | ++ (++ = 75-100% control of plant disease) | ++ (++ = 75-100% control of plant disease) | ++ (++ = 75-100% control of plant disease) | ++ (++ = 75-100% control of plant disease)
CNC(=O)C(=NOC)c1ccccc1COc1ncc(C(OC(C)=O)c2ccc(OC(F)(F)F)cc2)cc1Cl (centres unmarked) [Example 78] | ++ (++ = 75-100% control of plant disease) | ++ (++ = 75-100% control of plant disease) | ++ (++ = 75-100% control of plant disease) | ++ (++ = 75-100% control of plant disease)
CCC(=O)OC(c1ccccc1)c1cnc(OCc2ccccc2C(=NOC)C(=O)NC)c(Cl)c1 (racemic) [Example 36] | ++ (++ = 75-100% control of plant disease) | ++ (++ = 75-100% control of plant disease) | ++ (++ = 75-100% control of plant disease) | + (+ = 25-74% control of plant disease)
CNC(=O)C(=NOC)c1ccccc1COc1ncc(C(OC(C)=O)c2cccc(C)c2)cc1Cl (centres unmarked) [Example 112] | ++ (++ = 75-100% control of plant disease) | ++ (++ = 75-100% control of plant disease) | ++ (++ = 75-100% control of plant disease) | ++ (++ = 75-100% control of plant disease)
CNC(=O)C(=NOC)c1ccccc1COc1ncc(C(OCc2ccc(OC)cc2)c2ccccc2)cc1Cl (centres unmarked) [Example 101] | ++ (++ = 75-100% control of plant disease) | ++ (++ = 75-100% control of plant disease) | + (+ = 25-74% control of plant disease) | ++ (++ = 75-100% control of plant disease)
CNC(=O)C(=NOC)c1ccccc1COc1ncc(C(OC(C)=O)c2ccccc2)cc1Cl (racemic) [Example 28] | ++ (++ = 75-100% control of plant disease) | − (− = 0-24% control of plant disease) | ++ (++ = 75-100% control of plant disease) | − (− = 0-24% control of plant disease)
CNC(=O)C(=NOC)c1ccccc1COc1cc(OC)c(C(OC)c2cccc(C)c2)cn1 (centres unmarked) [Example 115] | ++ (++ = 75-100% control of plant disease) | − (− = 0-24% control of plant disease) | ++ (++ = 75-100% control of plant disease) | + (+ = 25-74% control of plant disease)
CNC(=O)C(=NOC)c1ccccc1COc1ncc(C(O)C(C)C)cc1Cl (racemic) [Example 43] | ++ (++ = 75-100% control of plant disease) | ++ (++ = 75-100% control of plant disease) | + (+ = 25-74% control of plant disease) | ++ (++ = 75-100% control of plant disease)
CNC(=O)C(=NOC)c1ccccc1COc1ncc(C(OC(C)=O)c2ccc(C)cc2)cc1Cl (centres unmarked) [Example 71] | ++ (++ = 75-100% control of plant disease) | ++ (++ = 75-100% control of plant disease) | ++ (++ = 75-100% control of plant disease) | ++ (++ = 75-100% control of plant disease)
CNC(=O)C(=NOC)c1ccccc1COc1ncc(C(OC(C)=O)c2ccccc2)cc1C (centres unmarked) [Example 98] | ++ (++ = 75-100% control of plant disease) | ++ (++ = 75-100% control of plant disease) | ++ (++ = 75-100% control of plant disease) | ++ (++ = 75-100% control of plant disease)
CCCOC(c1ccccc1)c1cnc(OCc2ccccc2C(=NOC)C(=O)NC)c(Cl)c1 (centres unmarked) [Example 120] | − (− = 0-24% control of plant disease) | + (+ = 25-74% control of plant disease) | + (+ = 25-74% control of plant disease) | ++ (++ = 75-100% control of plant disease)
CNC(=O)C(=NOC)c1ccccc1COc1ncc(C(O)c2ccccc2)cc1Cl (racemic) [Example 1] | ++ (++ = 75-100% control of plant disease) | ++ (++ = 75-100% control of plant disease) | ++ (++ = 75-100% control of plant disease) | ++ (++ = 75-100% control of plant disease)

— patent US6436963B1 (priority 1998, dated 2002)
